≈ marks a conversion by molar mass, not a printed value. Entries after “also recorded” stand apart in the source; their conditions may differ. Like-named read-outs stand apart in the source and are kept apart here.
How the values were obtained:
[1] = test system: human fibroblast; experiment: Toxicity against human fibroblast; format: cell-based
Text: XlogP values are derived from PubChem and describe the lipophilicity of the molecule. The topological polar surface area (tPSA) is a metric for predicting cell penetration, with values <140 to be favorable. […] Toxicity against human fibroblast was used to calculate the therapeutic index TI.

[2] = test system: C. neoformans; experiment: Growth inhibition assay (Bioscreen C, 2-fold dilution series, plating for fungicidal vs fungistatic) in C. neoformans; format: cell-based, Cryptococcus neoformans H99; settings: for fungicidal activity, lowest concentration: plated after 72 h, 24 h recovery at 30° on Sabouraud agar; for antifungal activity (in words): dose-response
Protocol: Primary screen and dose-response of selected candidates. To identify antifungal candidates in the MMV Malaria Box, the inventors initially casted the widest possible net. Growth inhibition assays were done using the Bioscreen C™ with constant agitation, in rich media and physiological relevant temperature of 37° to test the 400 antimalarial compounds against C. neoformans. […] To examine whether or not each dose was fungicidal or just fungistatic, the inventors plated a sample of each dilution after 72 hours. They were allowed to grow at the optimal growth temperature of 30° for 24 hours on Sabouraud rich agar plates and colonies were examined for growth. […]
(§1) Strains. H99 (Serotype A) is a well-characterized wild type laboratory reference strain of Cryptococcus neoformans (22). H99 was selected because it is a virulent strain widely by the field. Cryptococcus gattii strain R265 is used as the primary reference strain to which the genome is based (ATCC MYA-4093). This strain was isolated from the Vancouver Island (British Columbia, Canada) outbreak of 2004 (23, 24). H99 and R265 were maintained in Sabouraud (Sab) dextrose broth at 30° C. with constant 200 RPM agitation. One day prior to each experimental drug treatment, Sab broth was inoculated from glycerol stock and grown overnight to log phase before washing with PBS and resuspending in fresh Sab broth prior to treatment.
(§2) Compound library. 400 compounds were made available by the Medicines for Malaria Venture (Geneva, Switzerland) in the form of the open-access MMV Malaria Box. Compounds were stored at −80° C. in 100% DMSO at a concentration of 10 mM. Before usage, compounds were thawed at room temperature and thoroughly mixed. Compounds were diluted in 2-fold series 10 mM down to […] with DMSO before subsequent growth inhibition assays. Growth inhibition assays. The effectiveness of these MMV Malaria Box compounds against C. neoformans was measured by turbidity over time. The Bioscreen C™ (Growth Curves USA, Piscataway, N.J.) allows us to analyze ˜60 compounds at a time in triplicate with constant temperature and agitation. Assays were measured at 420-580 nm, wideband range every 15′ for 72 h at 37° C. to simulate physiologically relevant temperatures. Wideband is generally used for turbidity measurements, as it is mostly insensitive to changes in color. […] We inoculated 5×10^3 H99 C. neoformans and SC5314 C. albicans in 200 μl of Sabouraud dextrose broth in each of the honeycomb (HC-2) plate's 100 wells. A two-fold dilution series of each compound from 50 μM down to 0.39 μM final concentration were tested for effects against C. neoformans. To qualitatively differentiate fungistatic and fungicidal activity, 5 μl of each well after 72 h were spotted on Sabouraud dextrose agar rich media plates and allowed to grow at the optimal temperature 30° C. to induce a full recovery of viable yeast. Spots were noted after 24 h to identify fungicidal versus fungistatic concentrations of each compound. […] Mammalian cell viability and toxicity assays.

[3] = test system: C. albicans; experiment: Growth inhibition assay, 2-fold dilution series, in C. albicans; format: cell-based, Candida albicans SC5314; settings: for MIC: Candida albicans, after 72 h
Protocol: as §2

[4] = test system: murine bone marrow derived macrophages (BMDM); experiment: Mammalian cell lysis, LDH release assay in BMDM; format: cell-based
[5] = test system: L. prolificans; experiment: Growth inhibition assay, 2-fold dilution series, in L. prolificans; format: cell-based, Lomentospora prolificans; settings: for MIC: Lomentospora prolificans, after 72 h
[6] = test system: C. gattii; experiment: Growth inhibition assay, 2-fold dilution series, in C. gattii; format: cell-based, Cryptococcus gattii R265; settings: for MIC: Cryptococcus gattii, after 72 h
Protocol: as §1, §2

[7] = test system: C. neoformans; experiment: Imaging flow cytometry (Amnis ImageStream) of DM262 treated C. neoformans; format: cell-based, Cryptococcus neoformans
[8] = test system: murine bone marrow derived macrophages (BMDM); experiment: Mammalian cell viability, MTT assay in BMDM; format: cell-based
[9] = 72 h drug exposure in liquid culture, then recovery on agar plates overnight
[10] = Cryptococcus neoformans, C. neoformans, after 72 h, read-out: MIC
[11] = highest concentration studied 50 μM

Row | Structure (SMILES) | Toxicity human fibroblast [1] | MIC [2, 9] | fold more effective than fluconazole (fungicidal activity) ([2]; C. neoformans) | fungicidal activity, lowest concentration ([2]; C. neoformans) | MIC [3] | MIC [2, 10] | MIC [5] | MIC [6] | antifungal activity (in words) ([2]; C. neoformans) | other results
1 | Cc1ccc2c(c1)c1cc(C)ccc1n2CC(O)CNC1CCCCC1 (centres unmarked) [Compound 380] | 4.03 µM | 0.9 µg/mL | 8 fold | 3.12 µM |  |  |  |  |  | 
2 | Nc1ccc(-c2nc3ccc(Cc4ccc5nc(C6CCC(N)CC6)[nH]c5c4)cc3[nH]2)cc1 (centres unmarked) [DM262] | 11.4 µM | 0.3 µg/mL | 16 fold | 1.56 µM | 0.8 µM (≈ 0.349 µg/mL) | 0.8 µM | 6.3 µM (≈ 2.75 µg/mL) | 50 µM (≈ 21.8 µg/mL) |  | fold more effective than fluconazole (fungistatic activity) ([2]; C. neoformans): 32 fold; fungistatic activity, lowest concentration ([2]; C. neoformans, 72 h): 0.8 µM; LD50 ([4]; BMDM cell lysis, LDH release): 50 µM; concentration with minimal variance from DMSO vehicle control ([4]; BMDM, LDH): up to 12.5 μM; concentration giving significant delay in growth [6]: ≥ 12.5 µM; time until log phase is reached ([6]; 12.5 μM treatment, growth curves): approximately 48 h; concentration at which cells were dramatically trending towards apoptosis (apoptotic index, IDEAS 6.2) ([7]; 24 h treatment, morphology of the nucleus): 6.25 µM; effect on average size of the cells ([7]; brightfield, ImageStream): No significant change; also recorded: no effect; concentration with minimal variance from DMSO vehicle control ([8]; BMDM): up to 12.5 μM; LD50 ([8]; BMDM viability): 50 µM
3 | Cc1ccc2cc3c(N)c4c(C)ccc(C)c4nc3nc2c1 [Compound 253] | 11.4 µM | 7.2 µg/mL |  |  |  |  |  |  | low activity | 
4 | O=C(Nc1cccc(C(F)(F)F)c1)c1cc(Cl)ccc1O [Compound 155] | 0.024 µM | 0.5 µg/mL | 8 fold | 3.12 µM |  |  |  |  |  | 
5 | Cc1ccc(Nc2nc(-c3ccccn3)cs2)cc1 [Compound 64] |  | 1.6 µg/mL |  |  |  |  |  |  | low activity | 
6 | OC(Cn1cncn1)(Cn1cncn1)c1ccc(F)cc1F [Fluconazole] |  | 7.6 µg/mL |  |  | > 50 µM | 25 µM | > 50 µM | 50 µM (≈ 15.3 µg/mL) |  | effect on final OD420-580 (in words) [3]: only slight decrease; fungicidal concentration [3, 11]: > 50 µM; fungicidal concentration [5, 11]: > 50 µM; response in growth inhibition assay (in words) ([5]; up to the highest concentration tested, 50 μM): complete resistance; concentration at which growth was unaffected [6]: ≤ 6.3 µM

Source: patent US11246857B2, “Anti-fungal inhibitors” (THE JOHNS HOPKINS UNIVERSITY, priority 2017, dated 2022)
